Reference: patent EP1200455B1, “ENZYME CATALYZED THERAPEUTIC ACTIVATION” (Celmed Oncology (USA), Inc., priority 1999, dated 2001)

Experiments:
CCd18co [1] = assay: AlamarBlue cell proliferation (cytotoxicity) assay; assay type: cell-based, human; details: 120 hours drug exposure, normal colon epithelium cells
Protocol: (§1) Cells growing exponentially were transferred to 384-well flat bottom tissue culture plates. […] After 24 hours (day 0), 25 µL of complete medium containing the compounds over the dose range of 10^-3 to 10^-10 M were added in triplicate. Drug exposure time was 120 hours (day 5), after which growth inhibition was assayed. 5 µL of the redox indicator, alamarBlue, was added to each well (10% v/v).
(§2) Numbering in Tables 5 and 6 refer to the structures, shown infra. […] MCF7-TDX was derived from MCF7 breast tumor cells via selection in cell culture in the presence of Tomudex, a direct inhibitor of TS. […] Similarly, H630R10 is a 5FU (fluoropyrimidine) resistant colon cancer epithelial cell line derived from H630 colon cancer cells. […] HT1080, #12, is a fibrosarcoma tumor cell line that expresses high levels ofTS via a transgene introduced into HT1080 tumor cells. Normal cell lines used in these assays include CCD180co (normal colon epithelium) and Det551 (normal skin).

Det551 [2] = assay: AlamarBlue cell proliferation (cytotoxicity) assay; assay type: cell-based, human; details: 120 hours drug exposure, normal skin cells
Protocol: as §1, §2

H630R10 [3] = assay: AlamarBlue cell proliferation (cytotoxicity) assay; assay type: cell-based, human; details: 120 hours drug exposure, dose range 10^-3 to 10^-10 M
Protocol: as §1, §2

MCF7TDX = assay: AlamarBlue cell proliferation (cytotoxicity) assay; assay type: cell-based, human; details: 120 hours drug exposure, dose range 10^-3 to 10^-10 M
Protocol: as §1, §2

HT1080 = assay: AlamarBlue cell proliferation (cytotoxicity) assay; assay type: cell-based; details: dose range 10^-3 to 10^-10 M
Protocol: as §1, §2

Tumor Cells [4] = assay: AlamarBlue cell proliferation (cytotoxicity) assay, mean over tumor cells; assay type: cell-based; details: for mean IC30 over tumor cell lines: alamarBlue, mean of the MCF7TDX, H630R10 and HT1080 (µM); for activity (in words, summary of Tables 5 and 6): text comment on the cytotoxicity data
Protocol: as §1, §2

Normal Cells [5] = assay: AlamarBlue cell proliferation (cytotoxicity) assay, mean over normal cells; assay type: cell-based, human; details: mean of CCd18co and Det551 (µM)
Protocol: as §1, §2

H630R10 [6] = assay: Crystal violet cell proliferation inhibition assay; assay type: cell-based, human; details: 72 hours incubation
Protocol: (§3) Compound concentrations from 1 µM to 3000 µM were tested.
as §2

HT1080 # 12 = assay: Crystal violet cell proliferation inhibition assay; assay type: cell-based; details: high TS via transgene
Protocol: as §3, §2
(§4) Table 7. Cytotoxic Activity of NB1024 Isomers

Tumor Cells [7] = assay: Crystal violet cell proliferation inhibition assay, mean over tumor cells; assay type: cell-based
Protocol: as §3, §2

Normal Cells [8] = assay: Crystal violet cell proliferation inhibition assay, mean over normal cells; assay type: cell-based, human; details: mean of the CCD18co and Det551 columns
Protocol: as §3, §2

CCd18co [9] = assay: Crystal violet cell proliferation inhibition assay; assay type: cell-based; details: Homo sapiens, CCD-18Co, 72 hours incubation, normal colon epithelium cells
Protocol: as §3, §2, §4

Det551 [10] = assay: Crystal violet cell proliferation inhibition assay; assay type: cell-based; details: Homo sapiens, 72 hours incubation, normal skin cells
Protocol: as §3, §2, §4

[11] = system: H630R10 (5-FU resistant colon cancer cell line); assay: Amount of nucleoside and monophosphate in cells (HPLC of lysates after BVdU treatment); details: 2 days treatment with 100 µm BVdU
Protocol: (§5) 100 µM of BVdU was added to each dish and the cells continued to grow for 2 days at 37°C. After that, the medium was aspirated and the cells were washed twice with phosphate buffered saline (PBS). Then 1 ml of PBS per dish was added and the dishes were placed in a -80°C freezer. The cells were disrupted via freezing/thawing procedure, repeated twice. The cell debris in the resulting suspension were spun down (13,000 rpm,10 minutes) and the supernatant was deproteinized by passing though a Centrifugal Filter Device (Centrifree, 30,000 cut-off, Amicon) by centrifugation at 5,000 rpm for 30 minutes on Sorvall Super T21 centrifuge (Rotor SL-50-T, 1,912 g) at 20°C. The pass-through was concentrated to the volume of 100 µl, and injected onto an HPLC column (Adsorbosphere HS, C18, 5 µm, 4.6 mm x 150 mm, Alltech). The samples were analyzed using acetonitrile gradient in water containing trifluoroacetic acid. The peaks were detected at 300 mm the maximum of absorption of BVdU-derivatives, and the amounts of compounds were expressed as peak area at 300 nm. […]
(§6) The amounts of reference compounds BVdUMP or BVdU present in lysates call lines MCF7, MCF7TDX, and H630R10 each treated with BVdU, are expressed as an area of a corresponding HPLC peak at 300 nm. […]
(§7) Cells were incubated in complete media with 100 µm BVdU. Lysates were prepared and BVdUMP and BVdU levels were determined.

[12] = system: MCF7 (breast cancer cell line)
Protocol: as §5, §6, §7

[13] = system: MCF7TDX (Tomudex resistant breast cancer cell line)
Protocol: as §5, §6, §7

[14] = system: H630R10 (5-FU resistant colon cancer cell line)
Protocol: as §5, §6, §7

[15] = Homo sapiens, HT-1080, 120 hours drug exposure

Q: What does the source list for “5-(2-Bromovinyl)-2'-Deoxyuridine Phenyl N-Methoxy-L-alaninyl Phosphoramidate [NB1011]”?
A: IC50 (CCd18co [1]): 414 µM; IC50 (Det551 [2]): 398 µM; IC30 (H630R10 [3]): 82 µM; IC30 (MCF7TDX): 2 µM; IC30 (HT1080; 120 hours drug exposure): 182 µM; mean IC30 over tumor cell lines (Tumor Cells [4]): 88.7 µM; IC50 (Normal Cells [5]): 406 µM; IC50 (H630R10 [6]): 130 µM; IC50 (HT1080 # 12; 72 hours incubation): 1.2 µM; IC50 (Tumor Cells [7]; mean of the H630R10 and HT1080 # 12 columns (uM)): 65.6 µM; IC50 (Normal Cells [8]): 382 µM

Q: For `O=c1[nH]c(=O)n([C@H]2C[C@H](O)[C@@H](CO)O2)cc1/C=C/Br` [BVdU, (E)-5-(2-Bromovinyl)-2'-deoxyuridine, reference compound], which IC50 (CCd18co [1]; Homo sapiens, CCD-18Co) is on record?
A: 1000 µM

Q: What about the IC30 (H630R10 [3]; Homo sapiens) of the same compound?
A: 201 µM

Q: What about the IC30 (MCF7TDX; Homo sapiens) of the same compound?
A: 0.02 µM

Q: What about the IC30 (HT1080; [15]) of the same compound?
A: 719 µM

Q: What about the mean IC30 over tumor cell lines (Tumor Cells [4]; Homo sapiens, HT-1080) of the same compound?
A: 307 µM

Q: What about the IC50 (Normal Cells [5]; Homo sapiens, CCD-18Co) of the same compound?
A: 1000 µM

Q: And the IC50 (H630R10 [6]; Homo sapiens)?
A: 405 µM

Q: And the IC50 (CCd18co [9])?
A: 1000 µM

Q: And the IC50 (Det551 [10])?
A: 625 µM

Q: And the IC50 (HT1080 # 12; Homo sapiens, HT-1080, 72 hours incubation)?
A: 7 µM

Q: And the IC50 (Tumor Cells [7]; Homo sapiens, HT-1080, mean of the H630R10 and HT1080 # 12 columns (uM))?
A: 206 µM

Q: And the IC50 (Normal Cells [8]; Homo sapiens, CCD-18Co)?
A: 812 µM

Q: And the “BvdUMP/(BVdUMP + BVdU) x100” value [11]?
A: < 4

Q: For `O=c1[nH]c(=O)n([C@H]2C[C@H](O)[C@@H](COP(=O)(O)O)O2)cc1/C=C/Br` [BVdUMP], which “amount present in cell lysate, expressed as area of the HPLC peak at 300 nm” value (“amount present in cell lysate, expressed” for short) [12] is on record?
A: 63.7

Q: And the “amount present in cell lysate, expressed” value [13]?
A: 10.9

Q: And the “amount present in cell lysate, expressed” value [14]?
A: < 1

Q: How did the IC50 (Det551 [2]) turn out when `COC(=O)[C@H](C)NP(=O)(OC[C@H]1O[C@@H](n2cc(/C=C/Cl)c(=O)[nH]c2=O)C[C@@H]1O)Oc1ccccc1` (some centres unmarked) [NB1013] was run?
A: 570 µM

Q: What about the IC30 (H630R10 [3]) of the same compound?
A: 92 µM

Q: And the IC30 (MCF7TDX)?
A: 26 µM

Q: And the mean IC30 over tumor cell lines (Tumor Cells [4])?
A: 59 µM

Q: And the IC50 (Normal Cells [5])?
A: 570 µM

Q: With `COC(=O)C(C)NP(=O)(OCC1OC(n2cc(C(F)(F)F)c(=O)[nH]c2=O)CC1O)Oc1ccccc1` (centres unmarked) [NB1014] as the compound, how does the IC50 (Det551 [2]) read?
A: 239 µM

Q: What about the IC30 (H630R10 [3]) of the same compound?
A: 287 µM

Q: What about the IC30 (MCF7TDX) of the same compound?
A: 396 µM

Q: What about the mean IC30 over tumor cell lines (Tumor Cells [4]) of the same compound?
A: 342 µM

Q: What about the IC50 (Normal Cells [5]) of the same compound?
A: 139 µM

Q: With `O=c1[nH]c(=O)n([C@H]2C[C@H](O)[C@@H](CO)O2)cc1C=CCl` [NB1020, 5-(2-chlorovinyl)-2'-deoxyuridine] as the compound, how does the IC50 (CCd18co [1]; Homo sapiens, CCD-18Co) read?
A: 1000 µM

Q: What about the IC30 (H630R10 [3]; Homo sapiens) of the same compound?
A: 326 µM

Q: And the IC30 (MCF7TDX; Homo sapiens)?
A: 0.48 µM

Q: What about the IC30 (HT1080; [15]) of the same compound?
A: 1000 µM

Q: What about the mean IC30 over tumor cell lines (Tumor Cells [4]; Homo sapiens, HT-1080) of the same compound?
A: 442 µM

Q: What about the IC50 (Normal Cells [5]; Homo sapiens, CCD-18Co) of the same compound?
A: 1000 µM

Q: How did the IC50 (CCd18co [1]) turn out when `COC(=O)C(C)NP(=O)(OCC1OC(n2ccc(=O)[nH]c2=O)CC1O)Oc1ccccc1` (centres unmarked) [NB1025] was run?
A: 378 µM

Q: What about the IC30 (MCF7TDX) of the same compound?
A: 49 µM

Q: And the IC30 (HT1080; 120 hours drug exposure)?
A: 454 µM

Q: And the mean IC30 over tumor cell lines (Tumor Cells [4])?
A: 232 µM

Q: And the “activity (in words, summary of Tables 5 and 6)” value (Tumor Cells [4])?
A: active

Q: What about the IC50 (Normal Cells [5]) of the same compound?
A: 378 µM

Q: Which results are given for `O=c1ccn(C2CC(O)C(CO)O2)c(=O)[nH]1` (centres unmarked) [NB1026]?
A: IC30 (H630R10 [3]): 1000 µM; IC30 (MCF7TDX): 1000 µM; IC30 (HT1080; 120 hours drug exposure): 1000 µM; activity (in words, summary of Tables 5 and 6) (Tumor Cells [4]): little detectable activity
